Measurements reported in article PMC12687421, “Characterisation of an allosteric site in PLCγ enzymes and implications for development of their specific inhibitors” (Biochemical Journal, 2025).
Values belong to the compound of their own block, whether it stands above or below them.

What was measured:
PLCγ1^S345F [1] = target: T1, PLCγ1^S345F (Homo sapiens, UniProt P19174, I813T/S345F); test: Fluorescence polarisation competition with TNP-ATP; assay type: binding; conditions: fixed TNP-ATP
T1 construct: His-tag (N); Myc-tag (C); made in house; host or cells: Escherichia coli T7 Express lysY/Iq
T1 sequence (P19174 1-1291 isoform P19174-2 S345F/I813T): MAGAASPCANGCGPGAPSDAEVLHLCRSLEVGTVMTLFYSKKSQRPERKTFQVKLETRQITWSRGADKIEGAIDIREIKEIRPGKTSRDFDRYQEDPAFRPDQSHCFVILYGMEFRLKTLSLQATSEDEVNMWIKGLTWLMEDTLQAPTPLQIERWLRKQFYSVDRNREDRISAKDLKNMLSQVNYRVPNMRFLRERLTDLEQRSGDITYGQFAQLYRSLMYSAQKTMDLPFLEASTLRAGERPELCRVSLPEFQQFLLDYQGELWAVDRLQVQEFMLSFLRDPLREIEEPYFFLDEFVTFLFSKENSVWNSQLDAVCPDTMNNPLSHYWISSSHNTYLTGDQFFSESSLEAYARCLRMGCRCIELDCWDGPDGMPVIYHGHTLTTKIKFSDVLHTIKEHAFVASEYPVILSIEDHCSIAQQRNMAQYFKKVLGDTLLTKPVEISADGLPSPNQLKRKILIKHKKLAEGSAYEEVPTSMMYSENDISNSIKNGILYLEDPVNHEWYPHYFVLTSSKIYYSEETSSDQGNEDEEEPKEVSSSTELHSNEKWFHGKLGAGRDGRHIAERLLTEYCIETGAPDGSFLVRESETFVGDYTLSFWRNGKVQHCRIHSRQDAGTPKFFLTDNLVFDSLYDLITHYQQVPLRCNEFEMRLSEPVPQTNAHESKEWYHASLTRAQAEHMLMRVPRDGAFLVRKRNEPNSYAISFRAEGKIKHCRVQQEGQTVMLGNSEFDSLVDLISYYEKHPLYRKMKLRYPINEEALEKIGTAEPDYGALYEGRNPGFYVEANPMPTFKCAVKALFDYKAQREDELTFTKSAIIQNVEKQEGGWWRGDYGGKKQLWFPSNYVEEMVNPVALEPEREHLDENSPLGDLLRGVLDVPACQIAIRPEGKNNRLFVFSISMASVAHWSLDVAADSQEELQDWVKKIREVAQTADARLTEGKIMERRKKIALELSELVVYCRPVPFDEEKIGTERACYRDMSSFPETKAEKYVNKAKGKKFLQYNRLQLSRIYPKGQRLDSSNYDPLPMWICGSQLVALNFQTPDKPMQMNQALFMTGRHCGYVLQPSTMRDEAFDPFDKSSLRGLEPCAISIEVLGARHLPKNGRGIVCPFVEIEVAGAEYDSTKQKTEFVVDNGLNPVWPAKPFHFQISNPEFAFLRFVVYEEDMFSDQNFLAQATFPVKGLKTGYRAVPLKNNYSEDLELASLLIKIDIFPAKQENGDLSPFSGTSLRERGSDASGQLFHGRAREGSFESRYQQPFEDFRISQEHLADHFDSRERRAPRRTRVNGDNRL
Description: Experiments were performed in black small volume 384-well plates (Greiner) on a Pherastar FS microplate reader (BMG Labtech) utilising an FP module with Excitation 485 nm and Emission 520 nm. […] PLCγ1^S345F protein was titrated against the fixed concentration of TNP-ATP and the FP data fit in GraphPad Prism using the One site Total binding model. […] Equal amounts of DMSO only were added in a parallel FP experiment. Generated data was also fit in GraphPad Prism using the One site -Total binding model. Each experiment was performed in triplicate and the data presented as the mean and SD.

disease mouse model = test system: disease mouse model; design: method as in PMID 30429604, PMID 31548507; conditions: cited from earlier work
CD95–PLCγ1 interaction = test system: CD95–PLCγ1 interaction; design: method as in PMID 30429604, PMID 31548507; conditions: cited from earlier work
PLCδ1^Δ44 = target: T2, PLCδ1^Δ44 (Homo sapiens, UniProt P51178, DEL445-487); test: IP-ONE assay in HEK stable cell line expressing PLCδ1^Δ44; assay type: cell-based
T2 construct: Avi-tag (N); His-tag (N); expressed in transfected cells
T2 sequence (P51178 with tags, fused parts or gaps DEL445-487): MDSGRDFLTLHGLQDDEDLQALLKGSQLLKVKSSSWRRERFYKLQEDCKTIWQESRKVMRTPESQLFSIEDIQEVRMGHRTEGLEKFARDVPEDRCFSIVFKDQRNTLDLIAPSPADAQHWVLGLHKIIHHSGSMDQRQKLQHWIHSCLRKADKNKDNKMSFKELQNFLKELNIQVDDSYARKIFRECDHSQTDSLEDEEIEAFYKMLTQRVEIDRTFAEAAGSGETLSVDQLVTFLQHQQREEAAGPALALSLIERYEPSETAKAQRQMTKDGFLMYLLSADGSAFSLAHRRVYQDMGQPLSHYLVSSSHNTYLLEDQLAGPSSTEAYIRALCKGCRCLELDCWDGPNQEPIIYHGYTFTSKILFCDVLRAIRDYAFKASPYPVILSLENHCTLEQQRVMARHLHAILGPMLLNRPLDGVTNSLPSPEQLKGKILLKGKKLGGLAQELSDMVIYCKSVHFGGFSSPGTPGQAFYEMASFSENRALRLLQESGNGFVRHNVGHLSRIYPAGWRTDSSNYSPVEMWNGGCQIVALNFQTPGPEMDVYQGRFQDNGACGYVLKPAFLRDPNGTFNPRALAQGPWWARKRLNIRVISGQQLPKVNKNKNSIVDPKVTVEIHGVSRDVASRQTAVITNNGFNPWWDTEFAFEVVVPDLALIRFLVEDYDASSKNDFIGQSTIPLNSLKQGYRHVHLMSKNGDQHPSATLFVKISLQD
Description: (§1) For generating HEK cell lines that stably express PLC variants, an in-house Gateway compatible, Lenti viral vector was generated using In-Fusion cloning (Takara Bio) following manufacturer’s protocols. The vector backbone consisted of pLenti PGK Puro DEST (Addgene 19068). A KOZAK sequence, Avi-tag and His-tag (KAH cassette) was inserted between the PGK promoter and the attR1 vector regions. An IRES2 EmGFP cassette was inserted between the attR2 and WPRE regions. Both cassettes were PCR amplified from vector pHR-CMV-TetO2_3C-Avi-His6_IRES-EmGFP (Addgene 113888). Finally, a BirA ORF was cloned in-frame upstream of the EmGFP, which would express as a BirA-EmGFP fusion protein. The resulting Gateway compatible destination vector was used in the LR reaction (Thermo Fisher) with pENTR207 clones containing the PLCγ1^S345F or an activated version of PLCδ1, where the amino acids 445–487 had been deleted (PLCδ1Δ^44), to generate their respective expression clones ready for preparing stable cell lines in HEK.
(§2) Stable cell lines overexpressing PLCγ1^S345F or PLCδ1^Δ44 were prepared as described in [28]. […] Fluorescence-activated cell sorting (FACS) was used to select the top 10% of GFP-expressing cells. […]
(§3) PLC activity in cell lines was measured using the IP-ONE assay according to the manufacturer’s instructions as described in [28]. […]

PLCγ1^S345F [2] = target: T3, PLCγ1^S345F (Homo sapiens, UniProt P19174, S345F); test: IP-ONE assay in HEK stable cell line expressing PLCγ1^S345F; assay type: cell-based
T3 construct: Avi-tag (N); His-tag (N); expressed in transfected cells
T3 sequence (P19174 1-1290 S345F): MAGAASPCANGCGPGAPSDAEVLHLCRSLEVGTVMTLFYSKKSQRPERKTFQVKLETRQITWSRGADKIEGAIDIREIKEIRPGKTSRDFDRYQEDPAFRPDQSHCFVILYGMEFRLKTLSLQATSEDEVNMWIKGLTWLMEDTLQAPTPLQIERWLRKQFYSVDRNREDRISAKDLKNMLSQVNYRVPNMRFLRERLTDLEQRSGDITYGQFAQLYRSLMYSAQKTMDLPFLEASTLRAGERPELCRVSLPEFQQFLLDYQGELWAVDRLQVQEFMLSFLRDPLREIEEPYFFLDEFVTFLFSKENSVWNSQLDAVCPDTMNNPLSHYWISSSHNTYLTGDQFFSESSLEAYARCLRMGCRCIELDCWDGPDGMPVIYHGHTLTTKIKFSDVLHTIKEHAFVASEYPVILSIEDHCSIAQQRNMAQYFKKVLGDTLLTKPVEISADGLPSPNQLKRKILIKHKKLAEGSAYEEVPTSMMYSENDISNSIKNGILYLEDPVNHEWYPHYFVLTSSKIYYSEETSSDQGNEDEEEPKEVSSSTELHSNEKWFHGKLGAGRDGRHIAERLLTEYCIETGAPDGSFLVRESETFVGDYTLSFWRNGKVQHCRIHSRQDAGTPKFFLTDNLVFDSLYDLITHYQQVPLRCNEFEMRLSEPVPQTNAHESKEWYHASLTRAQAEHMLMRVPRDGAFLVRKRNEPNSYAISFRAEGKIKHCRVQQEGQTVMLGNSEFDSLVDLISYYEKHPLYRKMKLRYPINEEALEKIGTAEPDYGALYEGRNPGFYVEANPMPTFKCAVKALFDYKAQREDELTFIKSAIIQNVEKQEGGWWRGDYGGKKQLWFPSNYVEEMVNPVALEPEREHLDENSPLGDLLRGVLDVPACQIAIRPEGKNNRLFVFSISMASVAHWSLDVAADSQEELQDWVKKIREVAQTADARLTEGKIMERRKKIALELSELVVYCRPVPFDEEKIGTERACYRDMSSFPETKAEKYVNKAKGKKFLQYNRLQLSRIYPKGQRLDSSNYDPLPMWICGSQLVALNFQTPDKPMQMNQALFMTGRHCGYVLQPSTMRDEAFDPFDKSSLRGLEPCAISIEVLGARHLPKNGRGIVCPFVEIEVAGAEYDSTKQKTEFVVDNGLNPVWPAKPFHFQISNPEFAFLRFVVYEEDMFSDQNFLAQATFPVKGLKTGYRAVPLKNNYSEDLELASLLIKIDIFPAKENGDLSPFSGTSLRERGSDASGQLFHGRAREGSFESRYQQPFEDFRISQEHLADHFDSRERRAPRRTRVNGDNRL
Description: as §1, §2, §3

competition with binding of fluorescently labelled ATP analogue (TNP-ATP) (PLCγ1^S345F [1]): competed
SMILES: O=P(O)(O)CP(=O)(O)OC[C@H]1O[C@@H](n2cnc3c(NCc4ccccc4)ncnc32)[C@H](O)[C@@H]1O [PSB 12379]

SMILES: CC(C)c1nc(CN(C)C(=O)N[C@H](C(=O)N[C@@H](Cc2ccccc2)C[C@H](O)[C@H](Cc2ccccc2)NC(=O)OCc2cncs2)C(C)C)cs1 [ritonavir]
clinical symptoms in a disease mouse model (disease mouse model): alleviating clinical symptoms | CD95–PLCγ1 interaction (CD95–PLCγ1 interaction): disrupt

effect on PLC activity of PLCδ1 in stable cell line (PLCδ1^Δ44): no effect | IC50, PLC activity (IP1) in stable cell line (PLCδ1^Δ44; PLCδ1 Δ44): no inhibition | inhibition of PLC activity of PLCγ1^S345F in cell-based assay (PLCγ1^S345F [2]): potently inhibited | IC50 (PLCγ1^S345F [2]; PLCγ1 S345F, read-out: IC50, PLC activity (IP1) in stable cell line): 1600 nM
SMILES: CC(=O)OC[C@H]1O[C@@H](n2ncc(=O)[nH]c2=O)[C@H](OC(C)=O)[C@@H]1OC(C)=O [Azaribine]
